Experimental data: patent US4261883A (priority 1979, dated 1981)
Like-named read-outs stand apart in the source and are kept apart here.

How the values were obtained:
[1] = tested on: guinea pig ileum; experiment: guinea pig ileum test (inhibition of voltage induced contractions); assay type: cell-based; conditions: read-out: I.D.50 in the guinea pig ileum test
[2] = tested on: opioid receptors in caudate nuclei homogenate S4e; experiment: affinity labeling of opiate receptor sites by irradiation of azido compounds, caudate nuclei homogenate S4e; assay type: binding, bovine; conditions: normorphine hydrochloride added before the azide and irradiation

Compound | IC50 ([1]; Cavia porcellus) | effect on the deactivation of the opioid receptors by the azide compounds [2] | IC50 [1]
Oc1ccc2c3c1O[C@H]1[C@@H](O)C=C[C@H]4[C@@H](C2)NCC[C@@]341 [normorphine] | 120 nM | inhibit the deactivation of the opioid receptors | –
(D-ala^ 2)met-enkephalinamide | – | – | 12 nM
